One may read the melting point as the temperature, or range, at which the solid turns liquid.

Data set [1] concerns Transgenic Tg(kdrl:GFP)la116 zebrafish embryos. In words: Disruption of the caudal vein plexus in zebrafish embryos. It is filed as in vivo. Conditions: two-day-old zebrafish embryos, treated beginning at 10 hpf. The procedure:
(§1) Transgenic Tg(kdrl:GFP)la116 zebrafish embryos were treated with aplexone compounds beginning at 10 hours post fertilization (hpf). After two days of development, treated embryos were anesthetized with 0.01% tricaine and imaged using a Zeiss Axioplan 2 microscope. […] Formation of the caudal vein plexus is disrupted by treatment with 10 μM or higher of racemic (±)-aplexone (3) and 5 μM or higher of R-aplexone (3), but the caudal vein plexus forms normally even after treatment with 20 μM (S)-aplexone (3).

The test system of a further data set is zebrafish. Conditions: Choi et al., Development 2011; cited from earlier work.
Data set [2] deals with Zebrafish embryos. Put plainly: Cholesterol assay in zebrafish embryos (Amplex Red Cholesterol Assay Kit). Conditions: 40 μM, treated from 10 hpf to 30 hpf; FIG. 1. The class given is in vivo. The protocol: (§2) Zebrafish embryos used in cholesterol assays were treated with aplexone or atorvastatin (AT) from 10 hpf to 30 hpf at a concentration of 40 μM. Yolks were removed by vortexing in calcium-free Ringer's solution with 1 mM EDTA at 4° C. The embryos were then washed with calcium-free Ringer's solution, resuspended in cholesterol assay reaction buffer, and lysed by sonication. Cholesterol levels in embryo lysates were measured with an Amplex Red Cholesterol Assay Kit (ThermoFisher Scientific) and FLUOstar Omega microplate reader (BMG Labtech). Protein concentrations of the embryo lysates were measured by DC protein assay (Bio-Rad Laboratories) using a FLUOstar Omega microplate reader.

The subject of data set [3] is HMG-CoA reductase pathway. Conditions: zebrafish; Choi et al., Development 2011; cited from earlier work.
The subject of data set [4] is Zebrafish embryos. In words: Biological assays used herein (summary statement). It is filed as in vivo. The procedure: as §1, §2

As for `CC(=O)C1=CCC(c2ccccc2)N(S(=O)(=O)c2ccc(C)cc2)C1` (racemic) [(±)-aplexone, 1-(6-phenyl-1-tosyl-1,2,5,6-tetrahydropyridin-3-yl)ethan-1-one], the “concentration at which formation of the caudal vein plexus is disrupted” value (“concentration at which formation” below) in data set [1] was not below 10 µM. In the data set with zebrafish, the “levels of embryonic cholesterol compared with atorvastatin” value is “lowered the levels of embryonic cholesterol to a degree similar to that of atorvastatin”. Further, the “cholesterol levels in embryo lysates compared with atorvastatin (AT)” value in the data set with Zebrafish embryos [2] is “lowered the cholesterol levels to an extent similar to that of AT”. Further, the “regulation of arteriovenous angiogenesis” value in data set [3] is “regulate arteriovenous angiogenesis in zebrafish”.
For the molecule `CCOC(=O)C1=CC[C@H](c2ccccc2)N(S(=O)(=O)c2ccc(C)cc2)C1` [7c, Ethyl (R)-6-phenyl-1-tosyl-1,2,5,6-tetrahydropyridine-3-carboxylate], the melting point is 145 to 146 °C.
As to `CC(=O)C1=CC[C@H](c2ccccc2)N(S(=O)(=O)c2ccc(C)cc2)C1` [R-aplexone], the “concentration at which formation” value in data set [1] is not below 5 µM. Also, the “cholesterol levels in embryo lysates compared with atorvastatin (AT)” value in the data set on Zebrafish embryos [2] is recorded as “decreased the cholesterol levels to a greater extent than AT”. Further, the “biological activity of the enantiomer” value in the data set with Zebrafish embryos [4] was “active enantiomer”.
As to `CC(=O)C1=CC[C@@H](c2ccccc2)N(S(=O)(=O)c2ccc(C)cc2)C1` [S-aplexone], in data set [1], the “concentration at which formation” value is more than 20 µM. Moreover, the “cholesterol levels in embryo lysates compared with atorvastatin (AT)” value with Zebrafish embryos [2] is reported as “no cholesterol lowering activity”. The “biological activity of the enantiomer” value in the data set with Zebrafish embryos [4] was “little to no biological activity”.

Values taken from US20220009891A1, “(R) ENANATIOMER OF APLEXONE” (The Regents of the University of California, priority 2018, published 2022).
